Experimental findings from PubChem BioAssay (NCI) are described below.

Values joined by “and” are separate entries in the source; they are usually repeats but may differ in a detail not shown here. Identical values can stand only once.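 48-hour exposure; five concentrations; linearly interpolated endpoints. At the GI50, growth is halved. TGI marks complete inhibition of growth.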 Some results are limits rather than exact numbers.

Test systems include PC-3 prostate; RXF 393 renal; MDA-MB-435; HS 578T breast; HT29 colon; 786-0 renal; SK-OV-3 ovarian; MCF7 breast; EKVX NSCLC; BT-549 breast.
Holding throughout (assay): NCI tumour cell line growth inhibition, 48 h

For the molecule `Cc1cc(C(=O)NOCCO)c(Nc2ccc(I)cc2F)n(C)c1=O`, the GI50 was more than 100 µM with PC-3 prostate; 0.0915 µM and 0.199 µM with RXF 393 renal; 0.00458 µM and < 0.01 µM with MDA-MB-435; > 10 µM and 37.2 µM in the assay with HS 578T breast; 0.00193 µM and < 0.01 µM in the assay with HT29 colon; more than 83.9 µM with 786-0 renal. In addition, the GI50 was > 10 µM and 51.6 µM in the assay with SK-OV-3 ovarian; more than 100 µM in the assay on MCF7 breast; 0.0233 µM in the assay with EKVX NSCLC; more than 100 µM in the assay on BT-549 breast. In addition, the TGI with PC-3 prostate is more than 100 µM; with RXF 393 renal, > 10 µM and 92.3 µM; in the assay with MDA-MB-435 it was more than 100 µM; with HS 578T breast, more than 100 µM; in the assay with HT29 colon, more than 100 µM; with 786-0 renal it was more than 100 µM. Besides, the TGI in the assay with SK-OV-3 ovarian was more than 100 µM; in the assay with MCF7 breast, more than 100 µM; in the assay with EKVX NSCLC it was more than 10 µM; in the assay on BT-549 breast it was more than 100 µM.
For the molecule `OC(CBr)C(O)C(O)C(O)CBr` (stereo unspecified), the TGI with PC-3 prostate is more than 100 µM; with RXF 393 renal, more than 100 µM; with MDA-MB-435, more than 100 µM; with HS 578T breast it was more than 100 µM; in the assay with HT29 colon, more than 100 µM; with 786-0 renal, more than 67.9 µM. In addition, the TGI in the assay on SK-OV-3 ovarian is more than 100 µM; with MCF7 breast, more than 100 µM; in the assay on EKVX NSCLC it was more than 100 µM; in the assay with BT-549 breast, more than 77 µM. Besides, in the assay with MCF7 breast, the GI50 was 13.7 µM and 40.1 µM.
Consider `CNC(=O)c1cc(Oc2ccc(NC(=O)Nc3ccc(Cl)c(C(F)(F)F)c3)cc2)ccn1`, for which the GI50 is 2.2 µM and 2.6 µM and 2.14 µM in the assay on PC-3 prostate; 3.58 µM and 2.88 µM and 3.41 µM in the assay with RXF 393 renal; 1.96 µM and 1.82 µM and 1.84 µM in the assay on MDA-MB-435; 2.96 µM and 2.33 µM and 2.59 µM in the assay on HS 578T breast; 2.54 µM and 2.45 µM and 2.36 µM in the assay on HT29 colon; 4.04 µM and 3 µM and 3.42 µM in the assay with 786-0 renal. Also, the GI50 was 3.14 µM and 3.28 µM and 2.5 µM with SK-OV-3 ovarian; 2.62 µM and 2.41 µM and 2.82 µM with MCF7 breast; 3.24 µM and 2.51 µM and 2.67 µM in the assay with EKVX NSCLC; 3.01 µM and 2.29 µM and 3.16 µM in the assay with BT-549 breast. For the same molecule, the TGI in the assay with PC-3 prostate is 8.51 µM and 8.9 µM and 8.57 µM; in the assay with RXF 393 renal it was > 10 µM and 9.26 µM and 9.86 µM; in the assay on MDA-MB-435 it was 5.74 µM and 4.33 µM and 4.92 µM; with HS 578T breast, > 10 µM and 8.47 µM and 16.4 µM; in the assay with HT29 colon, > 10 µM and 8.39 µM and 9.02 µM; in the assay with 786-0 renal, > 10 µM and 9.4 µM and 13.2 µM. Further, the TGI with SK-OV-3 ovarian is 9.87 µM and 12.5 µM and 7.31 µM; with MCF7 breast it was 9.82 µM and 7.38 µM and 10 µM; in the assay on EKVX NSCLC, > 10 µM and 7.86 µM and 13 µM; in the assay with BT-549 breast, > 10 µM and 5.23 µM and 8.69 µM.
As to `COC1C[C@H](O[C@@H]2C[C@H](O[C@@H]3C[C@H](O[C@@H]4C(=O)c5c(cc6cc(O[C@H]7C[C@@H](O[C@H]8C[C@@H](O)[C@H](O)C(C)O8)[C@H](O)C(C)O7)c(C)c(O)c6c5O)C[C@H]4C(OC)C(=O)[C@@H](O)[C@@H](C)O)OC(C)[C@H]3O)OC(C)[C@@H]2O)OC(C)[C@@H]1O` (stereo partly specified), the GI50 with PC-3 prostate was 0.123 µM; in the assay on RXF 393 renal, 0.094 µM; in the assay on MDA-MB-435, 0.0949 µM; in the assay on HS 578T breast, 0.0743 µM; with HT29 colon it was 0.0974 µM; with 786-0 renal, 0.116 µM. For the same molecule, the GI50 with SK-OV-3 ovarian was 0.105 µM; in the assay with MCF7 breast it was 0.0493 µM; in the assay with EKVX NSCLC, 0.122 µM; in the assay with BT-549 breast, 0.0785 µM. For the same molecule, the TGI is more than 32.5 µM with PC-3 prostate; 0.525 µM in the assay with RXF 393 renal; 0.45 µM in the assay on MDA-MB-435; 4.96 µM in the assay on HS 578T breast; more than 32.5 µM in the assay with HT29 colon; more than 32.5 µM in the assay with 786-0 renal. The TGI in the assay on SK-OV-3 ovarian is more than 32.5 µM; with MCF7 breast, more than 32.5 µM; in the assay on EKVX NSCLC, 10.3 µM; with BT-549 breast, 0.565 µM.
With `S=C1NC(c2ccccc2)NC(c2ccccc2)S1` (stereo unspecified), the TGI in the assay on PC-3 prostate, in the assay on RXF 393 renal, in the assay on MDA-MB-435, in the assay with HS 578T breast, in the assay with HT29 colon and in the assay with 786-0 renal was more than 100 µM throughout. Further, the TGI in the assay with SK-OV-3 ovarian, in the assay with MCF7 breast, in the assay on EKVX NSCLC and with BT-549 breast was more than 100 µM throughout.
With `Nc1[nH]c(=S)[nH]c(=O)c1N=Nc1c(Br)cc(S(N)(=O)=O)cc1Br`, the TGI with PC-3 prostate, in the assay with RXF 393 renal, in the assay with MDA-MB-435, with HS 578T breast, with HT29 colon and in the assay on 786-0 renal was more than 100 µM throughout. Besides, the TGI in the assay on SK-OV-3 ovarian, in the assay on MCF7 breast, in the assay with EKVX NSCLC and in the assay on BT-549 breast was more than 100 µM each time.
As to `Cc1cc(C2CC(O)C(CO)O2)c(Br)cc1Br` (stereo unspecified), the GI50 is more than 100 µM in the assay with PC-3 prostate; more than 100 µM in the assay with RXF 393 renal; more than 100 µM with MDA-MB-435; 49.9 µM in the assay with HS 578T breast; 99.1 µM in the assay with HT29 colon; more than 100 µM in the assay with 786-0 renal. The GI50 is more than 100 µM with SK-OV-3 ovarian, more than 100 µM with MCF7 breast, 84.5 µM in the assay on EKVX NSCLC and more than 100 µM with BT-549 breast. The TGI with PC-3 prostate, in the assay with RXF 393 renal, in the assay with MDA-MB-435, with HS 578T breast, in the assay on HT29 colon and in the assay on 786-0 renal was more than 100 µM in each case. Moreover, the TGI in the assay with SK-OV-3 ovarian, in the assay with MCF7 breast, in the assay on EKVX NSCLC and in the assay with BT-549 breast was more than 100 µM throughout.
Regarding `Nc1nc(N)c2c(n1)NC(c1ccc(Cl)cc1)C1CCc3ccccc3C1=N2` (stereo unspecified), the GI50 in the assay on PC-3 prostate was 2.86 µM; with RXF 393 renal it was 4.68 µM; in the assay with MDA-MB-435 it was 4.72 µM; with HS 578T breast, 15 µM; with HT29 colon it was 4.31 µM; with 786-0 renal, 11.8 µM. Also, the GI50 in the assay on SK-OV-3 ovarian is 11 µM; in the assay with MCF7 breast it was 2.41 µM; in the assay on EKVX NSCLC, 3.62 µM; with BT-549 breast, 9.01 µM. Further, the TGI in the assay with PC-3 prostate was determined as 14.5 µM; in the assay with RXF 393 renal, 19.1 µM; in the assay on MDA-MB-435 it was 19.6 µM; with HS 578T breast, 50.3 µM; in the assay on HT29 colon, 18 µM; in the assay on 786-0 renal, 24.1 µM. For the same molecule, the TGI in the assay on SK-OV-3 ovarian was 23 µM; in the assay with MCF7 breast, 10.4 µM; in the assay with EKVX NSCLC, 21 µM; in the assay on BT-549 breast, 22.6 µM.
`c1ccc2c(c1)CCCc1nnc3nc4ccccc4n3c1-2`: the GI50 in the assay on PC-3 prostate is 7.87 µM; in the assay on RXF 393 renal it was 3.08 µM; in the assay on MDA-MB-435, 7.32 µM; in the assay on HS 578T breast it was 20.5 µM; with HT29 colon, 10.1 µM; with 786-0 renal, 5.12 µM. Besides, the GI50 is 7.78 µM with SK-OV-3 ovarian, 4.1 µM in the assay with MCF7 breast, 4.02 µM with EKVX NSCLC and 11.5 µM in the assay on BT-549 breast. Besides, the TGI is more than 100 µM with PC-3 prostate; 32.7 µM with RXF 393 renal; more than 100 µM in the assay on MDA-MB-435; more than 100 µM in the assay with HS 578T breast; 82.5 µM with HT29 colon; more than 100 µM with 786-0 renal. The TGI in the assay on SK-OV-3 ovarian, in the assay with MCF7 breast, in the assay on EKVX NSCLC and in the assay with BT-549 breast was more than 100 µM throughout.
